These results are taken from ChEMBL document CHEMBL1275380, “Studies toward the structural optimization of novel thiazolylhydrazone-based potent antitrypanosomal agents” (Bioorg Med Chem, 2010).

The source made the active and inactive calls. The calls are words filed in the database; no cut-off is given here.

Chain of Cruzipain (P25779 whole entry): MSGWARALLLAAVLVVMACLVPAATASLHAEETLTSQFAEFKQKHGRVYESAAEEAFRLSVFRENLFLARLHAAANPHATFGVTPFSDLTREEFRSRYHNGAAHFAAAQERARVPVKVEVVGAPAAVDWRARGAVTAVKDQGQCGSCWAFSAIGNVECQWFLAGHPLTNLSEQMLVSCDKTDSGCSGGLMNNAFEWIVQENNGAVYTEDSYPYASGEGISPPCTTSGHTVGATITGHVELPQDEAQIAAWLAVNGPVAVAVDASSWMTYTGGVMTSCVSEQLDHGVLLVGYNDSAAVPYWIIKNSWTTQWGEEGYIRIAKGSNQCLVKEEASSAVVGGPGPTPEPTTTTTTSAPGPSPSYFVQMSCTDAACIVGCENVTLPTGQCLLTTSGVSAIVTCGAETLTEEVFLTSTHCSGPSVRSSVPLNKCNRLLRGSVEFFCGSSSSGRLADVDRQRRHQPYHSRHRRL

The first data set deals with Trypanosoma cruzi. Kind of data set: Antitrypanosomal activity against trypomastigotes of Trypanosoma cruzi Y assessed as viability after 24 hrs by trypan blue exclusion assay. It counts as functional, organism-based.
Details: not given
The term IC50 denotes the concentration at which inhibition is half-maximal. Take `NC(=S)N/N=C/CCc1ccccc1`: the IC50 was 3.7 µM.
In the case of `O=C1CS/C(=N/N=C/C=C/c2ccccc2)N1`, the IC50 amounted to 10.1 µM.
In the case of `CCC1S/C(=N/N=C(\C)CSc2ccc(Cl)cc2)NC1=O` (stereo unspecified), the half-inhibitory concentration (IC50) amounted to 148 µM.
In the case of `NC(=S)N/N=C/CSc1ccccc1`, the IC50 came out at 158 µM.
As for `Cc1ccc(SC/C=N/N=C2\NC(=S)C(C)S2)cc1` (stereo unspecified), the IC50 worked out at 4.5 µM.

The next data set has as its target Cruzipain (Trypanosoma cruzi) (UniProt P25779). As to the kind of experiment: Inhibition of Trypanosoma cruzi cruzaine at 100 uM pre-incubated for 10 mins.
Details: not given
In general, inhibition refers to the share of the control response that was lost under treatment. The compound `O=C1CS/C(=N/N=C/CSc2ccc(Br)cc2)N1` displayed an inhibition of 8%.
`CC1S/C(=N/N=C/CCSc2ccc(Cl)cc2)NC1=O` (stereo unspecified): the inhibition stood at 98%.
Compound `O=C1CS/C(=N/N=C/C=C/c2ccccc2)N1` gave an inhibition of 8%.
`CCC1S/C(=N/N=C(\C)CSc2ccc(Cl)cc2)NC1=O` (stereo unspecified) came in with an inhibition of 31%.
On the same count and under the same terms, in the case of `NC(=S)N/N=C/CSc1ccccc1` it was 28%.
As for `Cc1ccc(SC/C=N/N=C2\NC(=S)C(C)S2)cc1` (stereo unspecified), the inhibition is 6%.
As to `CCC1S/C(=N/N=C/CSc2ccc(Br)cc2)NC1=O` (stereo unspecified), the inhibition came out at 38%.

Another data set addresses Cruzipain (Trypanosoma cruzi, UniProt P25779). Kind of data set: Inhibition of Trypanosoma cruzi cruzaine pre-incubated for 10 mins.
Details: not given
On to `CC1S/C(=N/N=C/CCSc2ccc(Cl)cc2)NC1=O` (stereo unspecified), for which inhibition was half-maximal at 0.2 µM (IC50).

The test system of the next data set is Trypanosoma cruzi. As to the kind of experiment: Antitrypanosomal activity against epimastigotes of Trypanosoma cruzi Y assessed as viability at 40 uM after 11 days by trypan blue exclusion assay. It counts as functional. The following applies: 264 h.
As to `O=C(Cn1ccnc1[N+](=O)[O-])NCc1ccccc1` [BENZNIDAZOLE], the inhibition at 40 µM was 97%.
For the compound `O=C1CS/C(=N/N=C/CSc2ccc(Br)cc2)N1`, the inhibition at 40 µM was found to be 31.5%.
As for `CC1S/C(=N/N=C/CCSc2ccc(Cl)cc2)NC1=O` (stereo unspecified), the inhibition at 40 µM came out at 10%.
As to `CCC1S/C(=N/N=C(\C)CSc2ccc(Cl)cc2)NC1=O` (stereo unspecified), the inhibition at 40 µM was found to be 24%.
Still for that read-out and setting: as for `NC(=S)N/N=C/CSc1ccccc1`, the figure is 100%; as for `CCC1S/C(=N/N=C/CSc2ccc(Br)cc2)NC1=O` (stereo unspecified), 77%.

The next data set relates to Trypanosoma cruzi. Kind of data set: Antitrypanosomal activity against epimastigotes of Trypanosoma cruzi Y assessed as viability at 40 uM after 15 hrs by trypan blue exclusion assay. The format is functional.
Details: not given
Turning to `O=C(Cn1ccnc1[N+](=O)[O-])NCc1ccccc1` [BENZNIDAZOLE], the inhibition at 40 µM was 43%.
On to `CCC1S/C(=N/N=C/CSc2ccc(Br)cc2)NC1=O` (stereo unspecified), for which the inhibition at 40 µM was determined as 0%.

The subject of a further data set is Trypanosoma cruzi. As to the kind of experiment: Antitrypanosomal activity against epimastigotes of Trypanosoma cruzi Y assessed as viability after 11 days by trypan blue exclusion assay. The following applies: 264 h. The format is functional, organism-based.
Take `O=C1CS/C(=N/N=C/CSc2ccc(Br)cc2)N1`: the IC50 came to 42.9 µM.
Regarding `CC1S/C(=N/N=C/CCSc2ccc(Cl)cc2)NC1=O` (stereo unspecified), the IC50 came to 32.1 µM.
Same read-out and setting: as for `NC(=S)N/N=C/CCc1ccccc1`, the figure is 3.7 µM; as for `O=C1CS/C(=N/N=C/C=C/c2ccccc2)N1`, 2.3 µM; as for `CCC1S/C(=N/N=C(\C)CSc2ccc(Cl)cc2)NC1=O` (stereo unspecified), 62.9 µM.
Take `NC(=S)N/N=C/CSc1ccccc1`: the IC50 came out at 13.4 µM.
For `Cc1ccc(SC/C=N/N=C2\NC(=S)C(C)S2)cc1` (stereo unspecified), the IC50 is 6.1 µM.
As for `CCC1S/C(=N/N=C/CSc2ccc(Br)cc2)NC1=O` (stereo unspecified), the half-inhibitory concentration (IC50) stood at 26.9 µM.

Another data set has as its system Trypanosoma cruzi. Kind of data set: Antitrypanosomal activity against epimastigotes of Trypanosoma cruzi Y assessed as viability at 40 uM after 7 days by trypan blue exclusion assay. It counts as functional. The following applies: 168 h.
On to `O=C(Cn1ccnc1[N+](=O)[O-])NCc1ccccc1` [BENZNIDAZOLE], for which the inhibition at 40 µM turned out to be 85%.
On the same count and under the same terms, in the case of `CCC1S/C(=N/N=C/CSc2ccc(Br)cc2)NC1=O` (stereo unspecified) it was 61%.

Another data set deals with Mus musculus. As to the kind of experiment: Toxicity in Swiss mouse assessed as mortality at 100 mg/kg, ip after 72 hrs. On the set-up: dose 100 mg/kg, route intraperitoneal. Conditions: in vivo. It counts as organism-based.
As for `O=C(Cn1ccnc1[N+](=O)[O-])NCc1ccccc1` [BENZNIDAZOLE], the Activity result is listed as “Non-toxic”.
Regarding `NC(=S)N/N=C/CSc1ccccc1`, the Activity result is recorded as “Non-toxic”.
On to `Cc1ccc(SC/C=N/N=C2\NC(=S)C(C)S2)cc1` (stereo unspecified), for which the Activity result is recorded as “Toxic”.
In the case of `CCC1S/C(=N/N=C/CSc2ccc(Br)cc2)NC1=O` (stereo unspecified), the Activity entry is recorded as “Non-toxic”.

Another data set deals with Cruzipain (Trypanosoma cruzi) (UniProt P25779). As to the kind of experiment: Inhibition of Trypanosoma cruzi cruzaine in presence of 0.01% Triton X-100.
Chain of Cruzipain (Trypanosoma cruzi) (P25779 123-467 limits assumed): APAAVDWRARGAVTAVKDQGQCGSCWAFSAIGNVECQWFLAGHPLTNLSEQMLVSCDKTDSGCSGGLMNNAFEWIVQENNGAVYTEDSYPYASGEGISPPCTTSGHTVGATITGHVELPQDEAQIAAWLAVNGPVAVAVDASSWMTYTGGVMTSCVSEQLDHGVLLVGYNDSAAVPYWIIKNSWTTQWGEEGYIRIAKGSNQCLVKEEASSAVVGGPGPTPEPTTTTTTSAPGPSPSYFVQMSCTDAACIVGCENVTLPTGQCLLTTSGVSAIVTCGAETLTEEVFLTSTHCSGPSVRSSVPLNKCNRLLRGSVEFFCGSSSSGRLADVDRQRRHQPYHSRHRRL
Details: not given
On to `O=C1CS/C(=N/N=C/CSc2ccc(Br)cc2)N1`, for which the inhibition entry was “Active”.
Same read-out and setting: as for `CC1S/C(=N/N=C/CCSc2ccc(Cl)cc2)NC1=O` (stereo unspecified), the entry is “Active”; as for `NC(=S)N/N=C/CCc1ccccc1`, “Active”; as for `O=C1CS/C(=N/N=C/C=C/c2ccccc2)N1`, “Active”.
For the compound `CCC1S/C(=N/N=C(\C)CSc2ccc(Cl)cc2)NC1=O` (stereo unspecified), the inhibition result is “Active”.
Regarding `NC(=S)N/N=C/CSc1ccccc1`, the inhibition result is “Active”.
With `Cc1ccc(SC/C=N/N=C2\NC(=S)C(C)S2)cc1` (stereo unspecified), the inhibition result was “Active”.
Still for that read-out and setting: as for `CCC1S/C(=N/N=C/CSc2ccc(Br)cc2)NC1=O` (stereo unspecified), the entry is “Active”.

Tested on in a further data set: not listed separately
Kind of data set: Cytotoxicity against BALB/c mouse Splenocyte assessed as non-cytotoxic concentration after 24 hrs by [3H]-thymidine incorporation assay relative to control. The format is cell-based. Conditions: splenocytes, read-out: Activity. A general note: Uptake of a labelled nucleoside into DNA is a usual measure of proliferation.
For the compound `O=C(Cn1ccnc1[N+](=O)[O-])NCc1ccccc1` [BENZNIDAZOLE], the MNTC at 24 h is 25 µg/mL.
With `O=C1CS/C(=N/N=C/CSc2ccc(Br)cc2)N1`, the MNTC at 24 h was above 100 µg/mL.
In the case of `CC1S/C(=N/N=C/CCSc2ccc(Cl)cc2)NC1=O` (stereo unspecified), the MNTC at 24 h is above 100 µg/mL.
For `CC/C(=N\NC(N)=S)c1cccc(Br)c1`, the MNTC at 24 h amounted to 1 µg/mL.
Turning to `NC(=S)N/N=C/CCc1ccccc1`, the MNTC at 24 h was below 1 µg/mL.
Regarding `O=C1CS/C(=N/N=C/C=C/c2ccccc2)N1`, the MNTC at 24 h is below 1 µg/mL.
As for `CCC1S/C(=N/N=C(\C)CSc2ccc(Cl)cc2)NC1=O` (stereo unspecified), the MNTC at 24 h is above 100 µg/mL.
On the same count and under the same terms, as for `NC(=S)N/N=C/CSc1ccccc1`, the figure is 5 µg/mL; as for `Cc1ccc(SC/C=N/N=C2\NC(=S)C(C)S2)cc1` (stereo unspecified), below 1 µg/mL.
On the same count and under the same terms, in the case of `CCC1S/C(=N/N=C/CSc2ccc(Br)cc2)NC1=O` (stereo unspecified) it was above 100 µg/mL.

In a further data set the target is Cruzipain (Trypanosoma cruzi) (UniProt P25779). As to the kind of experiment: Inhibition of Trypanosoma cruzi cruzaine in absence of 0.01% Triton X-100.
Details: not given
For `O=C1CS/C(=N/N=C/CSc2ccc(Br)cc2)N1`, the inhibition entry was “Active”.
On the same count and under the same terms, as for `CC1S/C(=N/N=C/CCSc2ccc(Cl)cc2)NC1=O` (stereo unspecified), the entry is “Active”; as for `NC(=S)N/N=C/CCc1ccccc1`, “Active”.
On to `O=C1CS/C(=N/N=C/C=C/c2ccccc2)N1`, for which the inhibition entry was “Active”.
As to `CCC1S/C(=N/N=C(\C)CSc2ccc(Cl)cc2)NC1=O` (stereo unspecified), the inhibition result is “Active”.
On the same count and under the same terms, as for `NC(=S)N/N=C/CSc1ccccc1`, the entry is “Active”; as for `Cc1ccc(SC/C=N/N=C2\NC(=S)C(C)S2)cc1` (stereo unspecified), “Active”.
On the same count and under the same terms, as for `CCC1S/C(=N/N=C/CSc2ccc(Br)cc2)NC1=O` (stereo unspecified), the entry is “Active”.
